What was measured:
[1] = system: Stat5 and Jak2 phosphorylation in PC cells; assay: ENZ-induced Jak2-Stat5 phosphorylation in PC cells (IP and WB); assay type: cell-based
Procedure: CWR22Pc and LAPC4 PC cells were treated with ENZ or vehicle for the indicated periods of time. Levels of active Stat5 were determined by immunoprecipitation (IP) of Stat5 followed by immunoblotting (WB) for pStat5a/b and total Stat5. Whole cell lysates (WCL) were immunoblotted for pStat3, Stat3 and Actin. […] CWR22Pc and LAPC4 cells were transduced with lentiviral AR shRNA (shAR) or lenti-shCtrl for 3 days followed by treatment with ENZ or vehicle for 7 days at the indicated concentrations.
PC cells were cultured with ENZ or Jak2 inhibitor AZD1480 (800 nM) alone or in combination for 12 days. Expression levels of active Stat5 were determined by IP of Stat5 followed by WB for pStat5a/b and total Stat5. WCLs were immunoblotted for pStat3, Stat3 and Actin. […] Jak2 was suppressed by lentiviral Jak2 shRNA vs. shCtrl in PC cells for 3 days followed by ENZ or vehicle for 7 days. Active Stat5, Stat5 and Jak2 levels were evaluated by IP and WB, as depicted. […] PC cells were treated with ENZ or vehicle for 6 h at the indicated concentrations. Control cells were stimulated with prolactin (Prl) (10 nM) for 20 min as control for cytokine-induced Jak2 phosphorylation. […] Alternatively, PC cells were treated with ENZ or vehicle for 12 days or stimulated with Prl for 20 min at the indicated concentrations. Stat5 and Jak2 were IP:ed and WB:ed for pStat5, pJak2, tot Stat5, and total Jak2.
To investigate whether AR is required for ENZ induction of Stat5 signaling, we inhibited AR expression in CWR22Pc and LAPC4 cells by genetic knockdown using lentiviral expression of AR shRNA (FIG. 9C).
To further assess the involvement of Jak2 in ENZ-induced Stat5 activation, Jak2 was genetically knocked down by lentiviral expression of Jak2 shRNA in CWR22Pc and LAPC4 cells for 3 days followed by ENZ treatment for 7 days.

[2] = system: EMT markers (N-cadherin, Vimentin, Twist1, E-cadherin) in PC cell lines; assay: EMT marker expression in PC cell lines treated with ENZ; assay type: cell-based; conditions: three PC cell lines, 12 days
Procedure: Lenti-viral expression of ShStat5 3 days prior to ENZ treatment (at indicated concentrations) blocked ENZ-induction of the EMT markers.
(§1) To evaluate if ENZ induces EMT and migration of PC cells in our hands, three different PC cell lines were treated with ENZ for 12 days and analyzed for the expression of EMT markers (N-cadherin, Vimentin and Twist1) by immunoprecipitation (IP) and western blotting (FIG. 13). […] The ENZ-induced PC cell migration was inhibited by genetic ablation of Stat5 by lentiviral expression of shStat5 vs. shCtrl (FIG. 14). Human CWR22Pc cells, when inoculated to the prostates of immunocompromised mice, form distant metastases in the liver in 8 weeks after orthotopic growth.

[3] = system: CWR22Rv1, CWR22Pc and LAPC4 cells; assay: PC cell migration, Boyden chamber assay; assay type: cell-based; conditions: Fibronectin chemoattractant
Procedure: Stat5 was genetically knocked down by lentiviral expression of shStat5 with shCtrl as control for 3 days followed by treatment with ENZ (40 μM; CWR22Pc, CWR22Rv1; 20 μM LAPC-4) vs. DMSO for 10 days. Equivalent numbers of cells were plated to Boyden chamber inserts with Fibronectin as the chemoattractant in the bottom well, and the migrated cells were imaged and counted.
as §1

[4] = system: nuclear active Stat5 in PCs; assay: Immunohistochemistry of active Stat5 in PCs of patients treated with ENZ; assay type: in vivo, human; conditions: biopsies of ENZ-treated PCs
Description: We recently reported that ENZ induces a hyperactivated feed-forward Jak2-Stat5 signaling loop in PC to promote ENZ-resistant PC growth(50).

CRPC = conditions: cited from earlier work

SMILES: CNC(=O)c1ccc(N2C(=S)N(c3ccc(C#N)c(C(F)(F)F)c3)C(=O)C2(C)C)cc1F [ENZ, 4-(3-(4-cyano-3-(trifluoromethyl)phenyl)-5,5-dimethyl-4-oxo-2-thioxoimidazolidin-1-yl)-2-fluoro-N-methylbenzamide]
- Stat5 phosphorylation in PC cell lines ([1]; FIG. 9): induced a robust Stat5 phosphorylation
- phosphorylation of Jak2 in PC cells ([1]; FIGS. 10C-10D): induced robust phosphorylation of Jak2
- expression of EMT markers [2]: induced the expression of N-cadherin, Vimentin and Twist1, while suppressing E-cadherin expression
- migration of PC cell lines [3]: induces a robust migration
- levels of nuclear active Stat5 versus hormone-naïve PCs [4]: significantly (p<0.0001) elevated
- improvement in survival of PC patients (CRPC): 4-6 months
